In brackets after ≈: the same amount, converted by molar mass. Where two headings read alike, the source gives them in different places.
Key:
[1] = system: Acinetobacter calcoaceticus ATCC 15473; assay: Antibacterial activity, MIC; type: cell-based; settings: ATCC15473, ATCC 15473, agar two-fold dilution, 37° C., 20 hours, read-out: MIC
Description: (§1) Also, the in vitro antibacterial activity was determined by the by a two-fold dilution method as described below:
(§2) That is, the two-fold serial dilutions of the compound were made dispersed in Muller-Hinton agar medium. 2 μl of standard test strain which had the 10^7 CFU per ml was inoculated on the medium, and was incubated at 37° C. for 20 hours.

[2] = system: Bacillus cereus ATCC 11778; assay: Antibacterial activity, MIC; type: cell-based; settings: ATCC11778, ATCC 11778, agar two-fold dilution, 37° C., 20 hours, read-out: MIC
Description: as §1, §2

[3] = system: Citrobacter freundii ATCC 8090; assay: Antibacterial activity, MIC; type: cell-based; settings: ATCC8090, ATCC 8090, agar two-fold dilution, 37° C., 20 hours, read-out: MIC
Description: as §1, §2

[4] = system: Enterobacter aerogenes ATCC 29751; assay: Antibacterial activity, MIC; type: cell-based; settings: Klebsiella aerogenes, ATCC29751; ATCC 29751; agar two-fold dilution, 37° C., 20 hours; read-out: MIC
Description: as §1, §2

[5] = system: Enterobacter cloacae ATCC 27508; assay: Antibacterial activity, MIC; type: cell-based; settings: ATCC27508, ATCC 27508, agar two-fold dilution, 37° C., 20 hours, read-out: MIC
Description: as §1, §2

[6] = system: Escherichia coli ATCC 10536; assay: Antibacterial activity, MIC; type: cell-based; settings: ATCC10536, agar two-fold dilution, 37° C., 20 hours
Description: as §1, §2

[7] = system: Escherichia coli ATCC 25922; assay: Antibacterial activity, MIC; type: cell-based; settings: ATCC25922, agar two-fold dilution, 37° C., 20 hours
Description: as §1, §2

[8] = system: Klebsiella pneumoniae ATCC 10031; assay: Antibacterial activity, MIC; type: cell-based; settings: ATCC10031, ATCC 10031, agar two-fold dilution, 37° C., 20 hours, read-out: MIC
Description: as §1, §2

[9] = system: Micrococcus luteus ATCC 9341; assay: Antibacterial activity, MIC; type: cell-based; settings: ATCC9341, ATCC 9341, agar two-fold dilution, 37° C., 20 hours, read-out: MIC
Description: as §1, §2

[10] = system: Morganella morganii ATCC 8076h; assay: Antibacterial activity, MIC; type: cell-based; settings: ATCC8076H, agar two-fold dilution, 37° C., 20 hours
Description: as §1, §2

[11] = system: Proteus mirabilis ATCC 25933; assay: Antibacterial activity, MIC; type: cell-based; settings: ATCC25933, ATCC 25933, agar two-fold dilution, 37° C., 20 hours, read-out: MIC
Description: as §1, §2

[12] = system: Proteus vulgaris ATCC 6059; assay: Antibacterial activity, MIC; type: cell-based; settings: ATCC6059, ATCC 6059, agar two-fold dilution, 37° C., 20 hours, read-out: MIC
Description: as §1, §2

[13] = system: Providencia rettgeri ATCC 9250; assay: Antibacterial activity, MIC; type: cell-based; settings: ATCC9250, agar two-fold dilution, 37° C., 20 hours
Description: as §1, §2

[14] = system: Pseudomonas aeruginosa ATCC 10145; assay: Antibacterial activity, MIC; type: cell-based; settings: ATCC10145, ATCC 10145, agar two-fold dilution, 37° C., 20 hours, read-out: MIC
Description: as §1, §2

[15] = system: Pseudomonas aeruginosa ATCC 25619; assay: Antibacterial activity, MIC; type: cell-based; settings: ATCC25619, ATCC 25619, agar two-fold dilution, 37° C., 20 hours, read-out: MIC
Description: as §1, §2

[16] = system: Pseudomonas aeruginosa ATCC 27853; assay: Antibacterial activity, MIC; type: cell-based; settings: ATCC27853, ATCC 27853, agar two-fold dilution, 37° C., 20 hours, read-out: MIC
Description: as §1, §2

[17] = system: Salmonella typhimurium ATCC 14028; assay: Antibacterial activity, MIC; type: cell-based; settings: Salmonella enterica; ATCC 14028; agar two-fold dilution, 37° C., 20 hours; read-out: MIC
Description: as §1, §2

[18] = system: Serratia marcescens ATCC 27117; assay: Antibacterial activity, MIC; type: cell-based; settings: ATCC27117, ATCC 27117, agar two-fold dilution, 37° C., 20 hours, read-out: MIC
Description: as §1, §2

[19] = system: Shigella flexneri ATCC 11836; assay: Antibacterial activity, MIC; type: cell-based; settings: ATCC11836, agar two-fold dilution, 37° C., 20 hours
Description: as §1, §2

[20] = system: Shigella sonnei ATCC 11060; assay: Antibacterial activity, MIC; type: cell-based; settings: ATCC11060, ATCC 11060, agar two-fold dilution, 37° C., 20 hours, read-out: MIC
Description: as §1, §2

[21] = system: Staphylococcus aureus ATCC 10537; assay: Antibacterial activity, MIC; type: cell-based; settings: ATCC10537, ATCC 10537, agar two-fold dilution, 37° C., 20 hours, read-out: MIC
Description: as §1, §2

[22] = system: Staphylococcus aureus ATCC 6538p; assay: Antibacterial activity, MIC; type: cell-based; settings: ATCC6538P, ATCC 6538p, agar two-fold dilution, 37° C., 20 hours, read-out: MIC
Description: as §1, §2

[23] = system: Staphylococcus epidermidis ATCC 12228; assay: Antibacterial activity, MIC; type: cell-based; settings: ATCC12228, ATCC 12228, agar two-fold dilution, 37° C., 20 hours, read-out: MIC
Description: as §1, §2

[24] = system: Streptococcus faecalis ATCC 29212; assay: Antibacterial activity, MIC; type: cell-based; settings: Enterococcus faecalis, ATCC29212; ATCC 29212; agar two-fold dilution, 37° C., 20 hours; read-out: MIC
Description: as §1, §2

[25] = In-vivo absorbency (plasma concentrations & pharmacokinetic parameters); parameters: species or system SD rat (male); settings: plasma, SD male rat, iv 20 mg/kg; for concentration at 1 h: 60 min; for concentration at 1 h / concentration at 2 h: read-out: Plasma Conc.; for concentration at 2 h: 120 min; for AUC / half-life: two compartment model; for half-life: rat, iv, 20 mg/kg
Excerpt: The blood samples from the femoral vein of the rats were taken every hour after administration, and analyzed by bio-assay(agar well method).
Tested animal: SD male Rat (220~340 g)

[26] = as above; parameters: species or system SD rat (male); settings: plasma, SD male rat, iv 20 mg/kg, read-out: Plasma Conc.

| Structure (SMILES) | MIC [1] [mg/L] | MIC [2] [mg/L] | MIC [3] [mg/L] | MIC [4] [mg/L] | MIC [5] [mg/L] | MIC [6] [mg/L] | MIC [7] [mg/L] | MIC [8] [mg/L] | MIC [9] [mg/L] | MIC [10] [mg/L] | MIC [11] [mg/L] | MIC [12] [mg/L] | MIC [13] [mg/L] | MIC [14] [mg/L] | MIC [15] [mg/L] | MIC [16] [mg/L] | MIC [17] [mg/L] | MIC [18] [mg/L] | MIC [19] [mg/L] | MIC [20] [mg/L] | other results |
| --- | --- | --- | --- | --- | --- | --- | --- | --- | --- | --- | --- | --- | --- | --- | --- | --- | --- | --- | --- | --- | --- |
| CCc1c(N)nc(SCC2=C(C(=O)[O-])N3C(=O)C(NC(=O)/C(=N\OC(C)(C)C(=O)O)c4csc(N)n4)C3SC2)[n+](C)c1N (stereo not drawn) [Compound I-31] | 8 (≈ 12.3 µM) | 128 (≈ 196 µM) | 0.13 (≈ 0.199 µM) | 2 (≈ 3.07 µM) | 0.016 (≈ 0.0245 µM) | 0.063 (≈ 0.0967 µM) | 0.13 (≈ 0.199 µM) | 0.063 (≈ 0.0967 µM) | 0.5 (≈ 0.767 µM) | ≤ 0.008 | 0.031 (≈ 0.0476 µM) | 0.063 (≈ 0.0967 µM) | ≤ 0.008 | 4 (≈ 6.14 µM) | 1 (≈ 1.53 µM) | 2 (≈ 3.07 µM) | 0.25 (≈ 0.384 µM) | 0.25 (≈ 0.384 µM) | 0.063 (≈ 0.0967 µM) | 0.063 (≈ 0.0967 µM) | MIC [21]: 4 mg/L (≈ 6.14 µM); MIC [22]: 4 mg/L (≈ 6.14 µM); MIC [23]: 2 mg/L (≈ 3.07 µM); MIC [24]: > 128 mg/L; concentration at 1 h [25]: 7.7 µg/mL; concentration at 2 h [25]: 1.6 µg/mL; AUC [25]: 30.5 µg·h/mL; half-life ([25]; read-out: T1/2 (α)): 6 min; half-life ([25]; read-out: T1/2 (β)): 27 min; concentration at 0.5 min [26]: 208 µg/mL; concentration at 2.5 min [26]: 85 µg/mL; concentration at 5 min [26]: 62 µg/mL; concentration at 10 min [26]: 45 µg/mL; concentration at 20 min [26]: 30 µg/mL; concentration at 40 min [26]: 14 µg/mL |
| CC[n+]1c(SCC2=C(C(=O)[O-])N3C(=O)C(NC(=O)/C(=N\OC(C)(C)C(=O)O)c4csc(N)n4)C3SC2)nc(N)c(C)c1N (stereo not drawn) [Compound I-32] | 8 (≈ 12.3 µM) | 64 (≈ 98.2 µM) | 0.13 (≈ 0.199 µM) | 2 (≈ 3.07 µM) | 0.016 (≈ 0.0245 µM) | 0.13 (≈ 0.199 µM) | 0.13 (≈ 0.199 µM) | 0.063 (≈ 0.0967 µM) | 0.25 (≈ 0.384 µM) | ≤ 0.008 | 0.031 (≈ 0.0476 µM) | 0.063 (≈ 0.0967 µM) | ≤ 0.008 | 4 (≈ 6.14 µM) | 2 (≈ 3.07 µM) | 2 (≈ 3.07 µM) | 0.25 (≈ 0.384 µM) | 0.13 (≈ 0.199 µM) | 0.031 (≈ 0.0476 µM) | 0.13 (≈ 0.199 µM) | MIC [21]: 2 mg/L (≈ 3.07 µM); MIC [22]: 4 mg/L (≈ 6.14 µM); MIC [23]: 1 mg/L (≈ 1.53 µM); MIC [24]: > 128 mg/L; concentration at 1 h [25]: 7.5 µg/mL; concentration at 2 h [25]: 1.8 µg/mL; AUC [25]: 30.5 µg·h/mL; half-life ([25]; read-out: T1/2 (α)): 3 min; half-life ([25]; read-out: T1/2 (β)): 29 min; concentration at 0.5 min [26]: 162 µg/mL; concentration at 2.5 min [26]: 75 µg/mL; concentration at 5 min [26]: 53 µg/mL; concentration at 10 min [26]: 35 µg/mL; concentration at 20 min [26]: 21 µg/mL; concentration at 40 min [26]: 13 µg/mL |
| CCc1c(N)nc(SCC2=C(C(=O)[O-])N3C(=O)C(NC(=O)/C(=N\OC(C)(C)C(=O)O)c4csc(N)n4)C3SC2)[n+](CC)c1N (stereo not drawn) [Compound I-33] | 16 (≈ 24 µM) | 128 (≈ 192 µM) | 0.13 (≈ 0.195 µM) | 4 (≈ 6.01 µM) | 0.031 (≈ 0.0466 µM) | 0.13 (≈ 0.195 µM) | 0.13 (≈ 0.195 µM) | 0.13 (≈ 0.195 µM) | 0.5 (≈ 0.751 µM) | ≤ 0.008 | 0.063 (≈ 0.0946 µM) | 0.13 (≈ 0.195 µM) | ≤ 0.008 | 4 (≈ 6.01 µM) | 2 (≈ 3 µM) | 2 (≈ 3 µM) | 0.5 (≈ 0.751 µM) | 0.5 (≈ 0.751 µM) | 0.063 (≈ 0.0946 µM) | 0.25 (≈ 0.375 µM) | MIC [21]: 4 mg/L (≈ 6.01 µM); MIC [22]: 4 mg/L (≈ 6.01 µM); MIC [23]: 2 mg/L (≈ 3 µM); MIC [24]: > 128 mg/L; concentration at 1 h [25]: 7 µg/mL; concentration at 2 h [25]: 1.2 µg/mL; AUC [25]: 30.5 µg·h/mL; half-life ([25]; read-out: T1/2 (α)): 2 min; half-life ([25]; read-out: T1/2 (β)): 24 min; concentration at 0.5 min [26]: 194 µg/mL; concentration at 2.5 min [26]: 79 µg/mL; concentration at 5 min [26]: 55 µg/mL; concentration at 10 min [26]: 36 µg/mL; concentration at 20 min [26]: 21 µg/mL; concentration at 40 min [26]: 13 µg/mL |
